This assay concerns miR-192 and miR-194 in WT TP53 MM cell lines. The assay can be described thus: qRT-PCR of miRNAs after demethylation agent. To be noted: 10 μM, 3 days, vs DMSO. It counts as cell-based, human.

For `Nc1ncn([C@@H]2O[C@H](CO)[C@@H](O)[C@H]2O)c(=O)n1` [Azacytidine], the “expression of miR-194-2-192 cluster miRNAs” value is “increased”.

(Values after patent US20130150430A1, “Methods for Impairing the P53/HDM2 Auto-Regulatory Loop in Multiple Myeloma Development Using mIR-192, mIR-194 and mIR-215” (THE OHIO STATE UNIVERSITY, priority 2011, published 2013).)
